Experimental data published in patent publication US10030020B2, “Spirocycle compounds and methods of making and using same” (Abide Therapeutics, Inc., priority 2016, dated 2018).
One block for each compound: values may come before it.

Assays:
[1] = molecular target: T1, MAGL (Mus musculus (Mouse), UniProt O35678); assay: In vitro competitive activity-based protein profiling (mouse brain membrane fraction or cell lysates), MAGL band; type: biochemical; settings: mouse proteome; for inhibition at 1 µM: read-out: MAGL % Inh 1 μM (mouse); for IC50: competitive ABPP
Method: In Vitro Competitive Activity-Based Protein Profiling.
Proteomes (mouse brain membrane fraction or cell lysates) (50 μL, 1.0 mg/mL total protein concentration) were preincubated with varying concentrations of inhibitors at 37° C. After 30 min, FP—Rh (1.0 μL, 50 μM in DMSO) was added and the mixture was incubated for another 30 min at 37° C. Reactions were quenched with SDS loading buffer (50 μL-4×) and run on SDS-PAGE.

[2] = molecular target: T2, ABHD6 (Mus musculus (Mouse), UniProt Q8R2Y0); assay: In vitro competitive activity-based protein profiling (mouse brain membrane fraction or cell lysates), ABHD6 band; type: biochemical; settings: mouse proteome; for inhibition at 1 µM: read-out: ABHD6 % Inh 1 μM (mouse); for IC50: competitive ABPP
How it was run: (§1)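 Mouse proteome samples (brain membrane fraction or cell lysate, 1.0 mg/mL protein) were pretreated with varying inhibitor concentrations and subsequently probed with fluorophosphonate-rhodamine, each step lasting 30 min at 37° C. Labelled proteins were separated by SDS-PAGE, and band fluorescence was imaged and quantified.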

[3] = molecular target: T3, FAAH (Mus musculus (Mouse), UniProt O08914); assay: In vitro competitive activity-based protein profiling (mouse brain membrane fraction or cell lysates), FAAH band; type: biochemical; settings: mouse proteome; for inhibition at 1 µM: read-out: FAAH % Inh 1 μM (mouse); for IC50: competitive ABPP
How it was run: as §1

[4] = molecular target: T1, MAGL; assay: Mouse brain proteomes from inhibitor treated mice (oral gavage, sacrificed 4 h after administration, ABPP analysis); type: in vivo, mouse (C57Bl/6J); settings: 5 mg/kg oral gavage
How it was run: (§2)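 Percent inhibition in brain tissue measured by ABPP 4 h after a single oral gavage dose (5 mg/kg) to wild-type C57Bl/6J mice; vehicle was, for example, PEG400/Ethanol/PBS at 7/2/1.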

[5] = molecular target: T3, FAAH; assay: Mouse brain proteomes from inhibitor treated mice (oral gavage, sacrificed 4 h after administration, ABPP analysis), FAAH; type: in vivo, mouse (C57Bl/6J); settings: 5 mg/kg oral gavage
How it was run: as §2

[6] = molecular target: T2, ABHD6; assay: Mouse brain proteomes from inhibitor treated mice (oral gavage, sacrificed 4 h after administration, ABPP analysis), ABHD6; type: in vivo, mouse (C57Bl/6J); settings: 5 mg/kg oral gavage
How it was run: as §2

T2 sequence (Q8R2Y0 whole entry): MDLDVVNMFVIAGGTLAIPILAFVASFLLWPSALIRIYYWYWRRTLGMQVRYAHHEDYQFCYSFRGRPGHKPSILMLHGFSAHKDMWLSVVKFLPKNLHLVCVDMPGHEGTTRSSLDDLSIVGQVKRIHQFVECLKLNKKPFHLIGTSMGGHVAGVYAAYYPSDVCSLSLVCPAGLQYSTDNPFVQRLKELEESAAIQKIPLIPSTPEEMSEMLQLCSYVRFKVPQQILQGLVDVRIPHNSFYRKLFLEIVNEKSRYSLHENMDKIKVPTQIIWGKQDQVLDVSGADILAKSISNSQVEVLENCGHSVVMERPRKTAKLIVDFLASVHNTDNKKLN
T1 sequence (O35678 whole entry): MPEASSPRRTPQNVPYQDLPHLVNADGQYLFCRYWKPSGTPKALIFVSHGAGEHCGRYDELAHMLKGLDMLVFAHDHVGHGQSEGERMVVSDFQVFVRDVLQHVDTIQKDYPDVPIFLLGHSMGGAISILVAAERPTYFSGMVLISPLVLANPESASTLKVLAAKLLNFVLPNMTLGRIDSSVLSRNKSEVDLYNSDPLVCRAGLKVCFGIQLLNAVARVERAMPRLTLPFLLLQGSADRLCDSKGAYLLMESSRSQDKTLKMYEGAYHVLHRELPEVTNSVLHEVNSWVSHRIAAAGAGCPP
T3 sequence (O08914 whole entry): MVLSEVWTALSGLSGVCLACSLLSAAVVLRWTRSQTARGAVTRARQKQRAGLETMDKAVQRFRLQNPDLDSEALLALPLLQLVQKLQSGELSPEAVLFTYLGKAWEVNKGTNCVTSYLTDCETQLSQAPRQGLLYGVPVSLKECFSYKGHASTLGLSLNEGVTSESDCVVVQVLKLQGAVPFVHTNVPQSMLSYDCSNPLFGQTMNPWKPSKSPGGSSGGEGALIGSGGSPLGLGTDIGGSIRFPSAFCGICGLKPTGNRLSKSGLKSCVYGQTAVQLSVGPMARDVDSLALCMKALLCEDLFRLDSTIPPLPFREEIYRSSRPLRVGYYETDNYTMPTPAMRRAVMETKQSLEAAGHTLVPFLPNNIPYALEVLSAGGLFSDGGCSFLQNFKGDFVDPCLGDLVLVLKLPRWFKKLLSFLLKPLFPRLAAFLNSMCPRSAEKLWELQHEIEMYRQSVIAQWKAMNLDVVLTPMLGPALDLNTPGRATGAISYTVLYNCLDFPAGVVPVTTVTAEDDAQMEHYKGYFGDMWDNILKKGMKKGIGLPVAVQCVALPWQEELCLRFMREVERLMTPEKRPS

SMILES: CCN1CCN(c2cc(C(F)(F)F)ccc2CN2CCCC23CCN(C(=O)OC(C(F)(F)F)C(F)(F)F)CC3)CC1 [Example 87, 1,1,1,3,3,3-Hexafluoropropan-2-yl 1-(2-(4-ethylpiperazin-1-yl)-4-(trifluoromethyl)benzyl)-1,8-diazaspiro[4.5]decane-8-carboxylate]
- inhibition at 1 µM [1]: > 75%
- IC50 [1]: < 0.1 µM
- inhibition at 1 µM [2]: < 25%
- IC50 [2]: > 1 µM
- inhibition at 1 µM [3]: < 25%
- IC50 [3]: > 1 µM
- MAGL % Inh 5 mg/kg (mouse) [4]: ## (## is equal to or greater than 25% but less than 75%)
- FAAH % Inh 5 mg/kg (mouse) [5]: # (# is <25%)
- ABHD6 % Inh 5 mg/kg (mouse) [6]: # (# is <25%)

SMILES: CC(=O)N1CCN(c2cc(C(F)(F)F)ccc2CN2CCCC23CCN(C(=O)OC(C(F)(F)F)C(F)(F)F)CC3)CC1 [Example 88, 1,1,1,3,3,3-Hexafluoropropan-2-yl 1-(2-(4-acetylpiperazin-1-yl)-4-(trifluoromethyl)benzyl)-1,8-diazaspiro[4.5]decane-8-carboxylate]
- inhibition at 1 µM [1]: > 75%
- IC50 [1]: < 0.1 µM
- inhibition at 1 µM [2]: < 25%
- IC50 [2]: > 1 µM
- inhibition at 1 µM [3]: < 25%
- IC50 [3]: > 1 µM
- MAGL % Inh 5 mg/kg (mouse) [4]: ## (## is equal to or greater than 25% but less than 75%)
- FAAH % Inh 5 mg/kg (mouse) [5]: # (# is <25%)
- ABHD6 % Inh 5 mg/kg (mouse) [6]: # (# is <25%)

SMILES: CS(=O)(=O)N1CCN(c2cc(C(F)(F)F)ccc2CN2CCCC23CCN(C(=O)OC(C(F)(F)F)C(F)(F)F)CC3)CC1 [Example 89, 1,1,1,3,3,3-Hexafluoropropan-2-yl 1-(2-(4-(methylsulfonyl)piperazin-1-yl)-4-(trifluoromethyl)benzyl)-1,8-diazaspiro[4.5]decane-8-carboxylate]
- inhibition at 1 µM [1]: > 75%
- IC50 [1]: < 0.1 µM
- inhibition at 1 µM [2]: < 25%
- IC50 [2]: > 1 µM
- inhibition at 1 µM [3]: < 25%
- IC50 [3]: > 1 µM
- MAGL % Inh 5 mg/kg (mouse) [4]: # (# is <25%)
- FAAH % Inh 5 mg/kg (mouse) [5]: # (# is <25%)
- ABHD6 % Inh 5 mg/kg (mouse) [6]: # (# is <25%)

SMILES: O=C(OC(C(F)(F)F)C(F)(F)F)N1CCC2(CCCN2Cc2ccc(C(F)(F)F)cc2N2CCC(F)(F)CC2)CC1 [Example 90, 1,1,1,3,3,3-Hexafluoropropan-2-yl 1-(2-(4,4-difluoropiperidin-1-yl)-4-(trifluoromethyl)benzyl)-1,8-diazaspiro[4.5]decane-8-carboxylate]
- inhibition at 1 µM [1]: > 75%
- IC50 [1]: < 0.1 µM
- inhibition at 1 µM [2]: < 25%
- IC50 [2]: > 1 µM
- inhibition at 1 µM [3]: < 25%
- IC50 [3]: > 1 µM
- MAGL % Inh 5 mg/kg (mouse) [4]: ## (## is equal to or greater than 25% but less than 75%)
- FAAH % Inh 5 mg/kg (mouse) [5]: # (# is <25%)
- ABHD6 % Inh 5 mg/kg (mouse) [6]: # (# is <25%)

SMILES: O=C(OC(C(F)(F)F)C(F)(F)F)N1CCC2(CCCN2Cc2ccc(C(F)(F)F)cc2N2CCC(F)CC2)CC1 [Example 91, 1,1,1,3,3,3-Hexafluoropropan-2-yl 1-(2-(4-fluoropiperidin-1-yl)-4-(trifluoromethyl)benzyl)-1,8-diazaspiro[4.5]decane-8-carboxylate]
- inhibition at 1 µM [1]: > 75%
- IC50 [1]: < 0.1 µM
- inhibition at 1 µM [2]: < 25%
- IC50 [2]: > 1 µM
- inhibition at 1 µM [3]: < 25%
- IC50 [3]: > 1 µM
- MAGL % Inh 5 mg/kg (mouse) [4]: ### (### is ≥75%)
- FAAH % Inh 5 mg/kg (mouse) [5]: # (# is <25%)
- ABHD6 % Inh 5 mg/kg (mouse) [6]: # (# is <25%)

More lines, now with the values ahead:

- inhibition at 1 µM [1]: > 75%
- IC50 [1]: < 0.1 µM
- inhibition at 1 µM [2]: < 25%
- IC50 [2]: > 1 µM
- inhibition at 1 µM [3]: < 25%
- IC50 [3]: > 1 µM
- MAGL % Inh 5 mg/kg (mouse) [4]: ### (### is ≥75%)
- FAAH % Inh 5 mg/kg (mouse) [5]: # (# is <25%)
- ABHD6 % Inh 5 mg/kg (mouse) [6]: # (# is <25%)
SMILES: Cc1c(CN2CCCC23CCN(C(=O)OC(C(F)(F)F)C(F)(F)F)CC3)cccc1N1CCCC1 [Example 85, 1,1,1,3,3,3-Hexafluoropropan-2-yl 1-(2-methyl-3-(pyrrolidin-1-yl)benzyl)-1,8-diazaspiro[4.5]decane-8-carboxylate]

- inhibition at 1 µM [1]: > 75%
- IC50 [1]: < 0.1 µM
- inhibition at 1 µM [2]: < 25%
- IC50 [2]: > 1 µM
- inhibition at 1 µM [3]: < 25%
- IC50 [3]: > 1 µM
- MAGL % Inh 5 mg/kg (mouse) [4]: ### (### is ≥75%)
- FAAH % Inh 5 mg/kg (mouse) [5]: # (# is <25%)
- ABHD6 % Inh 5 mg/kg (mouse) [6]: # (# is <25%)
SMILES: Cc1c(CN2CCCC23CCN(C(=O)OC(C(F)(F)F)C(F)(F)F)CC3)cccc1N1CC2CCC(C1)O2 [Example 86, 1,1,1,3,3,3-Hexafluoropropan-2-yl 1-(3-(8-oxa-3-azabicyclo[3.2.1]octan-3-yl)-2-methylbenzyl)-1,8-diazaspiro[4.5]decane-8-carboxylate]
